Measurements taken from the NIST ThermoML archive (doi:10.1016/j.tca.2011.08.002).

What was measured:
[1] = refractive index (Na D-line) (dimensionless); xn = mol fraction of the nth substance listed; conditions: 101 kPa, Liquid, Standard Abbe refractometry
[2] = xn = mol fraction of the nth substance listed; conditions: 101 kPa, Liquid, Vibrating tube method

C1CCC(NC2CCCCC2)CC1 [N-cyclohexylcyclohexanamine] + CCCCO
Conditions | mass density, [2] [kg/m3] | refractive index, [1]
288.15 K, x2 = 0 | 915.498 | 1.48636
288.15 K, x2 = 0.0512 | 914.315 | 1.48502
288.15 K, x2 = 0.1 | 912.993 | 1.48368
288.15 K, x2 = 0.2005 | 909.753 | 1.48027
288.15 K, x2 = 0.3005 | 905.695 | 1.47614
288.15 K, x2 = 0.4005 | 900.544 | 1.47121
288.15 K, x2 = 0.5 | 893.978 | 1.46517
288.15 K, x2 = 0.6002 | 885.407 | 1.45768
288.15 K, x2 = 0.7002 | 874.118 | 1.44826
288.15 K, x2 = 0.7984 | 859.411 | 1.43656
288.15 K, x2 = 0.8999 | 839.302 | 1.42104
288.15 K, x2 = 0.9493 | 827.33 | 1.41197
293.15 K, x2 = 0 | 911.705 | 1.48416
293.15 K, x2 = 0.0512 | 910.505 | 1.4828
293.15 K, x2 = 0.1 | 909.162 | 1.48147
293.15 K, x2 = 0.2005 | 905.869 | 1.47804
293.15 K, x2 = 0.3005 | 901.749 | 1.4739
293.15 K, x2 = 0.4005 | 896.535 | 1.46892
293.15 K, x2 = 0.5 | 889.912 | 1.46289
293.15 K, x2 = 0.6002 | 881.306 | 1.45538
293.15 K, x2 = 0.7002 | 870.025 | 1.44587
293.15 K, x2 = 0.7984 | 855.383 | 1.43432
293.15 K, x2 = 0.8999 | 835.393 | 1.4189
293.15 K, x2 = 0.9493 | 823.486 | 1.40987
298.15 K, x2 = 0 | 907.923 | 1.48198
298.15 K, x2 = 0.0512 | 906.698 | 1.4806
298.15 K, x2 = 0.1 | 905.333 | 1.47926
298.15 K, x2 = 0.2005 | 901.986 | 1.47579
298.15 K, x2 = 0.3005 | 897.806 | 1.47165
298.15 K, x2 = 0.4005 | 892.53 | 1.46666
298.15 K, x2 = 0.5 | 885.853 | 1.46059
298.15 K, x2 = 0.6002 | 877.207 | 1.45309
298.15 K, x2 = 0.7002 | 865.925 | 1.44368
298.15 K, x2 = 0.7984 | 851.344 | 1.43208
298.15 K, x2 = 0.8999 | 831.466 | 1.41673
298.15 K, x2 = 0.9493 | 819.618 | 1.40779
303.15 K, x2 = 0 | 904.144 | 1.47978
303.15 K, x2 = 0.0512 | 902.899 | 1.47842
303.15 K, x2 = 0.1 | 901.51 | 1.47704
303.15 K, x2 = 0.2005 | 898.104 | 1.47358
303.15 K, x2 = 0.3005 | 893.865 | 1.46939
303.15 K, x2 = 0.4005 | 888.526 | 1.4644
303.15 K, x2 = 0.5 | 881.79 | 1.45831
303.15 K, x2 = 0.6002 | 873.106 | 1.4508
303.15 K, x2 = 0.7002 | 861.822 | 1.44139
303.15 K, x2 = 0.7984 | 847.289 | 1.42985
303.15 K, x2 = 0.8999 | 827.516 | 1.4146
303.15 K, x2 = 0.9493 | 815.728 | 1.40565
308.15 K, x2 = 0 | 900.372 | 1.47761
308.15 K, x2 = 0.0512 | 899.101 | 1.47623
308.15 K, x2 = 0.1 | 897.686 | 1.47485
308.15 K, x2 = 0.2005 | 894.222 | 1.47136
308.15 K, x2 = 0.3005 | 889.919 | 1.46716
308.15 K, x2 = 0.4005 | 884.519 | 1.46213
308.15 K, x2 = 0.5 | 877.726 | 1.45604
308.15 K, x2 = 0.6002 | 868.997 | 1.44852
308.15 K, x2 = 0.7002 | 857.708 | 1.43914
308.15 K, x2 = 0.7984 | 843.219 | 1.42763
308.15 K, x2 = 0.8999 | 823.538 | 1.41241
308.15 K, x2 = 0.9493 | 811.807 | 1.40352
313.15 K, x2 = 0 | 896.608 | 1.47562
313.15 K, x2 = 0.0512 | 895.307 | 1.47419
313.15 K, x2 = 0.1 | 893.863 | 1.47267
313.15 K, x2 = 0.2005 | 890.338 | 1.4691
313.15 K, x2 = 0.3005 | 885.971 | 1.46487
313.15 K, x2 = 0.4005 | 880.507 | 1.45979
313.15 K, x2 = 0.5 | 873.654 | 1.45368
313.15 K, x2 = 0.6002 | 864.881 | 1.44613
313.15 K, x2 = 0.7002 | 853.579 | 1.43676
313.15 K, x2 = 0.7984 | 839.126 | 1.42522
313.15 K, x2 = 0.8999 | 819.533 | 1.41016
313.15 K, x2 = 0.9493 | 807.851 | 1.40134
318.15 K, x2 = 0 | 892.847 | 1.47347
318.15 K, x2 = 0.0512 | 891.512 | 1.472
318.15 K, x2 = 0.1 | 890.04 | 1.47049
318.15 K, x2 = 0.2005 | 886.452 | 1.46689
318.15 K, x2 = 0.3005 | 882.018 | 1.46265
318.15 K, x2 = 0.4005 | 876.487 | 1.45753
318.15 K, x2 = 0.5 | 869.572 | 1.4514
318.15 K, x2 = 0.6002 | 860.75 | 1.44384
318.15 K, x2 = 0.7002 | 849.434 | 1.43447
318.15 K, x2 = 0.7984 | 835.005 | 1.42299
318.15 K, x2 = 0.8999 | 815.488 | 1.40798
318.15 K, x2 = 0.9493 | 803.854 | 1.39919
323.15 K, x2 = 0 | 889.089 | 1.47134
323.15 K, x2 = 0.0512 | 887.718 | 1.46985
323.15 K, x2 = 0.1 | 886.213 | 1.46835
323.15 K, x2 = 0.2005 | 882.559 | 1.46474
323.15 K, x2 = 0.3005 | 878.053 | 1.46049
323.15 K, x2 = 0.4005 | 872.455 | 1.45537
323.15 K, x2 = 0.5 | 865.476 | 1.4492
323.15 K, x2 = 0.6002 | 856.603 | 1.44162
323.15 K, x2 = 0.7002 | 845.267 | 1.43225
323.15 K, x2 = 0.7984 | 830.854 | 1.42074
323.15 K, x2 = 0.8999 | 811.404 | 1.40571
323.15 K, x2 = 0.9493 | 799.814 | 1.39701
